Reference: ChEMBL document CHEMBL5247655, “Simplified Derivatives of Tetrandrine as Potent and Specific P-gp Inhibitors to Reverse Multidrug Resistance in Cancer Chemotherapy” (J Med Chem, 2023)

Key:
ECa-109 cell line [1] = experiment: Reversal of vincristine-resistance in human Eca-109 cells assessed as fold reversal by measuring cell viability incubated for 48 hrs by CCK-8 method relative to vincristine alone; type: functional
ECa-109 cell line [2] = experiment: Cytotoxicity against vincristine resistant human Eca-109 cells incubated for 48 hrs by CCK-8 method relative to control; type: functional; design: concentration or dose not given beside the values
ECa-109 cell line [3] = experiment: Reversal of VCR -resistance in human Eca-109 cells assessed as cell viability at 5 uM incubated for 48 hrs by CCK-8 method (reference value: 6830.0+/-537.0 nM); type: functional, cell-based; conditions: ECa-109, 48 h
ECa-109 cell line [4] = experiment: Reversal of vincristine-resistance in human Eca-109 cells assessed as fold reversal by measuring cell viability at 5 uM incubated for 48 hrs by CCK-8 method relative to vincristine alone; type: functional

| SMILES | fold change (FC) (ECa-109 cell line [1]) | Activity (ECa-109 cell line [2]) [%] | IC50 (ECa-109 cell line [3]) [nM] | fold change (FC) (ECa-109 cell line [4]) |
| --- | --- | --- | --- | --- |
| CCOc1ccc(CC2c3cc(OC)c(OC)cc3CCN2C)cc1OC (centres undefined) | 11.7 | 88 |  |  |
| COc1ccc2cc1Oc1ccc(cc1)C[C@H]1c3c(cc4c(c3Oc3cc5c(cc3OC)CCN(C)[C@@H]5C2)OCO4)CCN1C [CEPHARANTHINE] |  |  | 437 | 15.6 |
| COc1cc2c(cc1OC)C(Cc1ccc(C(F)(F)F)cc1)N(C)CC2 (centres undefined) | 3.5 | 91.7 |  |  |
| CCOC(=O)CCCOc1cc(CC2c3cc(OC)c(OC)cc3CCN2C)ccc1OC (centres undefined) | 219.3 | 86.7 |  |  |
| COc1cc2c(cc1OC)C(Cc1ccccc1)N(C)CC2 (centres undefined) | 4.4 | 93.7 |  |  |
| COc1ccc(CC2c3cc(OC)c(OC)cc3CCN2C)cc1 (centres undefined) | 7.4 | 96.3 |  |  |
| COc1cc2c(cc1OC)C1Cc3ccc(OC)c(O)c3CN1CC2 (centres undefined) | 1.2 | 74.2 |  |  |
| COc1cc2c(cc1OC)C(CC1CCCCC1)N(C)CC2 (centres undefined) | 3.7 | 89.9 |  |  |
| CN1CCc2ccccc2C1=O | 2.5 | 91.3 |  |  |
| COc1cc2c(cc1OC)C(Cc1ccc(F)cc1)N(C)CC2 (centres undefined) | 2.8 | 99.3 |  |  |
| COc1cc2c(cc1OC)C(Cc1cccc(O)c1)N(C)CC2 (centres undefined) | 4.3 | 99.2 |  |  |
| COc1cc2c(cc1OC)C(Cc1ccc(C)cc1)N(C)CC2 (centres undefined) | 4.5 | 95.9 |  |  |
| COc1cc2c(cc1OC)C(Cc1ccc(Br)cc1)N(C)CC2 (centres undefined) | 1.6 | 92.8 |  |  |
| COc1cc2c(cc1OC)C(=O)N(C)CC2 | 3.2 | 98.4 |  |  |
| COc1ccc(CC2c3cc(OC)c(OC)cc3CCN2C)cc1O (centres undefined) | 2.5 | 903 |  |  |
| COc1cc2c(cc1OC)C(Cc1ccc([N+](=O)[O-])cc1)N(C)CC2 (centres undefined) | 2.3 | 87.1 |  |  |
| COc1cc2c(cc1OC)C(Cc1ccc(Cl)cc1)N(C)CC2 (centres undefined) | 8.6 | 93 |  |  |
| COc1cc2c(cc1OC)C(c1ccc(O)cc1)N(C)CC2 (centres undefined) | 1.8 | 87.7 |  |  |
| COc1cc2c(cc1OC)C(Cc1ccc(OC)c(OCC3CCCCC3)c1)N(C)CC2 (centres undefined) | 140.3 | 88.1 |  |  |
| COc1cc2c(cc1OC)C(Cc1ccccc1O)N(C)CC2 (centres undefined) | 7.1 | 98.9 |  |  |
| COc1cc2c(cc1OC)C(Cc1ccc(OC)c(OCC3CCOCC3)c1)N(C)CC2 (centres undefined) | 126.8 | 94.4 |  |  |
| COc1cc2c(cc1OC)C(CC(C)C)N(C)CC2 (centres undefined) | 3.3 | 96.1 |  |  |
